Active and inactive are the calls of the source. No cut-off for these calls is given here.
Columns and labels:
[1] = target: T1, von Hippel-Lindau disease tumor suppressor/Casein kinase I isoform delta (Homo sapiens, UniProt P48730+P40337); experiment: PROTAC activity at VHL/Hibit-fused CK1 delta in human MV4-11 cells assessed as degradation of CK1-delta incubated for 6 hrs by Nano-Glo HiBiT assay relative to control; format: cell-based
Target sequence in this assay (P40337 whole entry, looked up, the tested form may be a part, canonical isoform): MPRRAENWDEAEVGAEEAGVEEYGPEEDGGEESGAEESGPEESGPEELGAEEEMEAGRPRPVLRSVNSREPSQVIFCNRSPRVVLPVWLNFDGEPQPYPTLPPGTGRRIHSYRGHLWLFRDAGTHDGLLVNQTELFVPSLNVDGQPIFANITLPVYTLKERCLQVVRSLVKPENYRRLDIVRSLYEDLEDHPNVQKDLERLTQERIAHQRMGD
Target sequence in this assay (P48730 whole entry, looked up, the tested form may be a part, canonical isoform): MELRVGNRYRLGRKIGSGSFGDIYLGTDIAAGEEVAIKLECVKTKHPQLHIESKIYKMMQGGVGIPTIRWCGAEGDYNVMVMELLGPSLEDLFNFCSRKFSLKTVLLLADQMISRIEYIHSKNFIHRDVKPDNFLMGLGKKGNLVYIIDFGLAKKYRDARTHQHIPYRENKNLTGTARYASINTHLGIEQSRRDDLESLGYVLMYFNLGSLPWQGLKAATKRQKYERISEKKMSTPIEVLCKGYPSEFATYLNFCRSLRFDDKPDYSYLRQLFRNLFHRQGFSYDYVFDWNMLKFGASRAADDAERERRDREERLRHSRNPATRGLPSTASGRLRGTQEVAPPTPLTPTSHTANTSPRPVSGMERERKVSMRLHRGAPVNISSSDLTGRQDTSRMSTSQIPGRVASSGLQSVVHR

[2] = target: T2, von Hippel-Lindau disease tumor suppressor/Casein kinase I isoform epsilon (Homo sapiens) (UniProt P49674+P40337); experiment: PROTAC activity at VHL/CK1 epsilon in human MV4-11 cells assessed as degradation of CK1 epsilon at 5 to 10 uM incubated for 6 hrs by Western blot analysis; format: cell-based; conditions: dose 5-10 µM
[3] = target: T1, von Hippel-Lindau disease tumor suppressor/Casein kinase I isoform delta; experiment: PROTAC activity at VHL/CK1 delta in HEK293 cells assessed as induction of degradation of CK1 delta by measuring maximum efficacy at 5 to 10 uM measured after 6 hrs by Western blot analysis relative to control; format: cell-based; conditions: dose 5-10 µM
Target sequence in this assay (P40337 whole entry, looked up, the tested form may be a part, canonical isoform): as the sequence (P40337 whole entry, looked up, the tested form may be a part, canonical isoform) above
Target sequence in this assay (P48730 whole entry, looked up, the tested form may be a part, canonical isoform): as the sequence (P48730 whole entry, looked up, the tested form may be a part, canonical isoform) above

[4] = target: T2, von Hippel-Lindau disease tumor suppressor/Casein kinase I isoform epsilon (Homo sapiens); experiment: PROTAC activity at VHL/CK1 epsilon in human HEK293 cells assessed as degradation of CK1 epsilon at 3 to 20 uM incubated overnight followed by compound washout and measured after 1 hr by Nano-Glo HiBiT assay; format: cell-based; conditions: dose 3-20 µM
[5] = target: T1, von Hippel-Lindau disease tumor suppressor/Casein kinase I isoform delta; experiment: PROTAC activity at VHL/HiBit fused CK1 delta in human MV4-11 cells assessed as fold change at 10 uM measured after 6 hrs in presence of 10 uM of MU1742 by Nano-Glo HiBit assay; format: cell-based
Target sequence in this assay (P40337 whole entry, looked up, the tested form may be a part, canonical isoform): as the sequence (P40337 whole entry, looked up, the tested form may be a part, canonical isoform) above
Target sequence in this assay (P48730 whole entry, looked up, the tested form may be a part, canonical isoform): as the sequence (P48730 whole entry, looked up, the tested form may be a part, canonical isoform) above

[6] = target: T1, von Hippel-Lindau disease tumor suppressor/Casein kinase I isoform delta; experiment: PROTAC activity at VHL/HiBit fused CK1 delta in human MV4-11 cells assessed as fold change at 0.63 uM measured after 6 hrs in presence of MLN4924 by Nano-Glo HiBit assay; format: cell-based
Target sequence in this assay (P40337 whole entry, looked up, the tested form may be a part, canonical isoform): as the sequence (P40337 whole entry, looked up, the tested form may be a part, canonical isoform) above
Target sequence in this assay (P48730 whole entry, looked up, the tested form may be a part, canonical isoform): as the sequence (P48730 whole entry, looked up, the tested form may be a part, canonical isoform) above

[7] = target: T1, von Hippel-Lindau disease tumor suppressor/Casein kinase I isoform delta; experiment: PROTAC activity at VHL/CK1 delta in human HEK293 cells at 0.625 to 10 uM in presence of MU1742 by Western blot analysis; format: cell-based; conditions: dose 0.625-10 µM
Target sequence in this assay (P40337 whole entry, looked up, the tested form may be a part, canonical isoform): as the sequence (P40337 whole entry, looked up, the tested form may be a part, canonical isoform) above
Target sequence in this assay (P48730 whole entry, looked up, the tested form may be a part, canonical isoform): as the sequence (P48730 whole entry, looked up, the tested form may be a part, canonical isoform) above

[8] = target: Casein kinase I isoform delta (Homo sapiens) (UniProt P48730); experiment: Binding affinity to […] in human HEK293 cells assessed as target engagement at >3 uM; format: cell-based
[9] = target: T2, von Hippel-Lindau disease tumor suppressor/Casein kinase I isoform epsilon (Homo sapiens); experiment: PROTAC activity at VHL/CK1 epsilon in HEK293 cells assessed as induction of degradation of CK1 epsilon measured after 6 hrs by Western blot analysis; format: cell-based; conditions: dose 0.01-30 µM
[10] = target: T1, von Hippel-Lindau disease tumor suppressor/Casein kinase I isoform delta; experiment: PROTAC activity at VHL/CK1 delta in HEK293 cells assessed as induction of degradation of CK1 delta measured after 6 hrs by Western blot analysis; format: cell-based; conditions: dose 0.01-30 µM
Target sequence in this assay (P40337 whole entry, looked up, the tested form may be a part, canonical isoform): as the sequence (P40337 whole entry, looked up, the tested form may be a part, canonical isoform) above
Target sequence in this assay (P48730 whole entry, looked up, the tested form may be a part, canonical isoform): as the sequence (P48730 whole entry, looked up, the tested form may be a part, canonical isoform) above

[11] = target: T3, von Hippel-Lindau disease tumor suppressor/Casein kinase I isoform alpha (Homo sapiens) (UniProt P48729+P40337); experiment: PROTAC activity at VHL/CK1 alpha in human MV4-11 cells assessed as induction of degradation of CK1 alpha by measuring maximum efficacy at 10 uM measured after 12 hrs by HiBit assay relative to control; format: cell-based
[12] = target: T1, von Hippel-Lindau disease tumor suppressor/Casein kinase I isoform delta; experiment: PROTAC activity at VHL/HiBit fused CK1 delta in human MV4-11 cells assessed as fold change at 10 uM measured after 6 hrs by Nano-Glo HiBit assay; format: cell-based
[13] = target: T3, von Hippel-Lindau disease tumor suppressor/Casein kinase I isoform alpha (Homo sapiens); experiment: PROTAC activity at VHL/CK1 alpha (unknown origin) endogenously expressed in HEK293 cells assessed as degradation of CK1-alpha at 10 to 30 uM incubated for 6 hrs by Western blot analysis; format: cell-based; conditions: dose 10-30 µM
[14] = target: T2, von Hippel-Lindau disease tumor suppressor/Casein kinase I isoform epsilon (Homo sapiens); experiment: PROTAC activity at VHL/CK1 epsilon in human U87 cells assessed as induction of degradation of CK1 epsilon at 1 uM measured after 6 hrs; format: cell-based
[15] = target: T3, von Hippel-Lindau disease tumor suppressor/Casein kinase I isoform alpha (Homo sapiens); experiment: PROTAC activity at VHL/CK1 alpha in human MV4-11 cells assessed as induction of degradation of CK1 alpha by measuring maximum efficacy at 2.5 uM measured after 12 hrs by HiBit assay relative to control; format: cell-based
[16] = target: T3, von Hippel-Lindau disease tumor suppressor/Casein kinase I isoform alpha (Homo sapiens); experiment: PROTAC activity at VHL/CK1 alpha in HEK293 cells assessed as induction of degradation of CK1 alpha at high concentration measured after 6 hrs by Western blot analysis relative to control; format: cell-based
[17] = target: T2, von Hippel-Lindau disease tumor suppressor/Casein kinase I isoform epsilon (Homo sapiens); experiment: PROTAC activity at VHL/CK1 epsilon in HEK293 cells assessed as induction of degradation of CK1 epsilon at 3 uM measured after 1 hrs by Western blot analysis; format: cell-based
[18] = target: T1, von Hippel-Lindau disease tumor suppressor/Casein kinase I isoform delta; experiment: PROTAC activity at VHL/HiBit fused CK1 delta in human MV4-11 cells assessed as fold change at 2.5 uM measured after 6 hrs by Nano-Glo HiBit assay; format: cell-based
[19] = target: T2, von Hippel-Lindau disease tumor suppressor/Casein kinase I isoform epsilon (Homo sapiens); experiment: PROTAC activity at VHL/CK1 epsilon in human MDA-MB-231 cells assessed as induction of degradation of CK1 epsilon by measuring maximum efficacy at 1 uM measured after 6 hrs relative to control; format: cell-based
[20] = target: T3, von Hippel-Lindau disease tumor suppressor/Casein kinase I isoform alpha (Homo sapiens); experiment: PROTAC activity at VHL/CK1 alpha in human U87 cells assessed as induction of degradation of CK1 alpha at 1 uM measured after 6 hrs; format: cell-based
[21] = target: T1, von Hippel-Lindau disease tumor suppressor/Casein kinase I isoform delta; experiment: PROTAC activity at VHL/Hibit-fused CK1 delta in human MV4-11 cells assessed as degradation of CK1-delta incubated for 6 hrs by Nano-Glo HiBiT assay; format: cell-based
Target sequence in this assay (P48730 whole entry, the tested form may be a part, canonical isoform): as the sequence (P48730 whole entry, looked up, the tested form may be a part, canonical isoform) above
Target sequence in this assay (P40337 whole entry, the tested form may be a part, canonical isoform): as the sequence (P40337 whole entry, looked up, the tested form may be a part, canonical isoform) above

[22] = target: T3, von Hippel-Lindau disease tumor suppressor/Casein kinase I isoform alpha (Homo sapiens); experiment: PROTAC activity at VHL/CK1 alpha in human MDA-MB-231 cells assessed as induction of degradation of CK1 alpha at 1 uM measured after 6 hrs; format: cell-based
[23] = target: T3, von Hippel-Lindau disease tumor suppressor/Casein kinase I isoform alpha (Homo sapiens); experiment: PROTAC activity at VHL/Hibit-fused CK1 alpha in human MV4-11 cells assessed as degradation of CK1-alpha at 10 to 30 uM incubated for 6 hrs by Western blot analysis; format: cell-based; conditions: dose 10-30 µM
[24] = target: T1, von Hippel-Lindau disease tumor suppressor/Casein kinase I isoform delta; experiment: PROTAC activity at VHL/HiBit fused CK1 delta in human MV4-11 cells assessed as fold change at 0.63 uM measured after 6 hrs in presence of 1 uM of MU1742 by Nano-Glo HiBit assay; format: cell-based
[25] = target: T2, von Hippel-Lindau disease tumor suppressor/Casein kinase I isoform epsilon (Homo sapiens); experiment: PROTAC activity at VHL/CK1 epsilon in HEK293 cells assessed as induction of degradation of CK1 epsilon at upto 20 uM pretreated with LGK974 followed by compound addition and measured after 6 hrs by Western blot analysis; format: cell-based
[26] = target: T2, von Hippel-Lindau disease tumor suppressor/Casein kinase I isoform epsilon (Homo sapiens); experiment: PROTAC activity at VHL/CK1 epsilon in human HEK293 cells at 0.625 to 10 uM in presence of MU1742 by Western blot analysis; format: cell-based; conditions: dose 0.625-10 µM
[27] = target: T2, von Hippel-Lindau disease tumor suppressor/Casein kinase I isoform epsilon (Homo sapiens); experiment: PROTAC activity at VHL/CK1 epsilon in human U87 cells assessed as induction of degradation of CK1 epsilon by measuring maximum efficacy at 1 uM measured after 6 hrs relative to control; format: cell-based
[28] = target: T1, von Hippel-Lindau disease tumor suppressor/Casein kinase I isoform delta; experiment: PROTAC activity at VHL/CK1 delta in HEK293 cells assessed as induction of degradation of CK1 delta at upto 20 uM pretreated with LGK974 followed by compound addition and measured after 6 hrs by Western blot analysis; format: cell-based
MV4-11 = experiment: Cytotoxicity in human MV4-11 cells at 10 uM measured after 72 hrs by alamar blue assay; format: functional, cell-based
[29] = target: T1, von Hippel-Lindau disease tumor suppressor/Casein kinase I isoform delta; experiment: PROTAC activity at VHL/CK1 delta in HEK293 cells assessed as induction of degradation of CK1 delta at 0.3 to 1.0 uM measured after 6 hrs by Western blot analysis relative to control; format: cell-based; conditions: dose 0.3-1 µM

T2 sequence (P40337 whole entry, looked up, canonical isoform): as the sequence (P40337 whole entry, looked up, the tested form may be a part, canonical isoform) above
T2 sequence (P49674 whole entry, looked up, canonical isoform): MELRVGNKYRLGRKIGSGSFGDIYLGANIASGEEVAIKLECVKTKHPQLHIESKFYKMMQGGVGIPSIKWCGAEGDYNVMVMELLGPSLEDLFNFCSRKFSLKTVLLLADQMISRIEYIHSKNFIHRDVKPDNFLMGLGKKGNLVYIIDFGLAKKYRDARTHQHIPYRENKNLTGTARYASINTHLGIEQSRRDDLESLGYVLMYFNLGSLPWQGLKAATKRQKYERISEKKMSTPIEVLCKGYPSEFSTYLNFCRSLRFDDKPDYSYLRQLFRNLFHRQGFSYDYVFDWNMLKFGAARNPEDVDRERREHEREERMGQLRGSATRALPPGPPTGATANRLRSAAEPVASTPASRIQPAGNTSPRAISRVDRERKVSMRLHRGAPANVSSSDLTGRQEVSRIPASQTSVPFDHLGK
T3 sequence (P40337 whole entry, looked up, the tested form may be a part, canonical isoform): as the sequence (P40337 whole entry, looked up, the tested form may be a part, canonical isoform) above
T3 sequence (P48729 whole entry, looked up, the tested form may be a part, canonical isoform): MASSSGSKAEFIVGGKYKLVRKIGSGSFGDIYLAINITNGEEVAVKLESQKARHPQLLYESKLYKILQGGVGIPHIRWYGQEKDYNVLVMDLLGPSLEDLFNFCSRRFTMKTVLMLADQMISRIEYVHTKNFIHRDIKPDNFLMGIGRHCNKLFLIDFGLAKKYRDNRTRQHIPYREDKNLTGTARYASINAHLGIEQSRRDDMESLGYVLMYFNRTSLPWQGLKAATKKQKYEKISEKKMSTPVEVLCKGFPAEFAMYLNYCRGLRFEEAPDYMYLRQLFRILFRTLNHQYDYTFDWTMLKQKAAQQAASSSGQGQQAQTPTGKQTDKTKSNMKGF
Sequence of Casein kinase I isoform delta (Homo sapiens) (P48730 whole entry, looked up, canonical isoform): as the sequence (P48730 whole entry, looked up, the tested form may be a part, canonical isoform) above

## Cc1ncsc1-c1ccc(CNC(=O)[C@H]2C[C@H](O)CN2C(=O)[C@H](NC(=O)CCCCCCC(=O)N2CCC(F)(Cn3cnc(-c4ccc(F)cn4)c3-c3ccnc4[nH]ccc34)CC2)C(C)(C)C)cc1
[1]
  Emax: 70.1%
[2]
  Activity: Active
[3]
  Emax: > 50%
[4]
  Activity: inactive
[5]
  fold change (FC): 1.02
[6]
  fold change (FC): 0.82
[7]
  Activity: inactive
[8]
  Activity: Active
[9]
  Activity: Dose-dependent-effect
[10]
  Activity: Dose-dependent-effect
[11]
  Emax: 50%
[12]
  fold change (FC): 0.3
[13]
  Activity: Active
[14]
  Activity: Active
[15]
  Emax: 20%
[16]
  Activity: Not active; Compound Showed Weak Degradation
[17]
  Activity: Active
[18]
  fold change (FC): 0.33
[19]
  Emax: 75%
[20]
  Activity: inactive
[21]
  DC50: 550 nM
[22]
  Activity: inactive
[23]
  Activity: Not active; Compound Showed Weak Degradation
[24]
  fold change (FC): 1.19
[25]
  Activity: Active
[26]
  Activity: inactive
[27]
  Emax: > 50%
[28]
  Activity: Active
MV4-11
  Activity: Active; Compound Showed Milder Cytotoxic Effect
[29]
  Activity: 100%

— ChEMBL document CHEMBL6087472, “Development and Discovery of a Selective Degrader of Casein Kinases 1 δ/ε” (J Med Chem, 2025)
